Measured values taken from patent publication EP1369120B1 (priority 2002, dated 2003).
Several values for one entry are separate records, joined by “and”; a condition that tells them apart may be missing. Identical values can stand only once. Like-named read-outs stand apart in the source and are kept apart here.

What was measured:
[1] = system: HCV sub-genomic replicons (Ava.5); assay: microbe, parasite or virus in culture; format: cell-based, hepatitis C virus
[2] = system: Huh-7 cells containing HCV sub-genomic replicons (Ava.5); assay: cells; format: cell-based
HCV = format: cell-based; settings: 300 nM As2O3 (data not shown)
[3] = huh-7 hcv replicon cells, 1440 min, 1 µM
[4] = huh-7 hcv replicon cells, 4320 min, 0.01 µM
[5] = huh-7 hcv replicon cells, 4320 min, 0.05 µM
[6] = huh-7 hcv replicon cells, 4320 min, 0.1 µM
[7] = huh-7 hcv replicon cells, 4320 min, 1 µM

Row | Compound | EC50 ([1]; Hepatitis C virus, Ava5, 24 h) | IC50 ([2]; Hepatitis C virus, Ava5, 24 h) | inhibition of HCV replication ([1]; 5 µM) | IC50 ([2]; read-out: IC50) | inhibition of the replication (HCV) | inhibition of replication of HCV RNA [1] | negative strand of HCV RNA detected (relative copy number) [1, 3] | positive strand of HCV RNA detected (relative copy number) [1, 3] | relative HCV RNA level (negative strand) [1, 4] | relative HCV RNA level (positive strand) [1, 4] | relative HCV RNA level (negative strand) [1, 5] | relative HCV RNA level (positive strand) [1, 5] | relative HCV RNA level (negative strand) [1, 6] | relative HCV RNA level (positive strand) [1, 6] | negative strand HCV RNA detected (relative copy number) [1, 7] | positive strand RNA detected (relative copy number) [1, 7] | EC50 ([1]; read-out: EC50) | IC50 ([2]; read-out: ICso (concentration which causes 50% cell death))
1 | O=[As]O [Sodium arsenite] | 250 nM | 10000 nM |  |  |  |  |  |  |  |  |  |  |  |  |  |  |  | 
2 | Potassium antimony tartrate [Potassium antimony tartrate (PAT)] |  |  | 75 % inhibition of HCV replication at 5 µM of PAT treatment | 35000 nM |  |  |  |  |  |  |  |  |  |  |  |  |  | 
3 | arsenic trioxide [As2O3] |  |  |  | 6000 nM | completely | dose-dependent manner | 14.1% | 15.6% | 135.3% | 95.1% | 74.3% | 70% | 67.5% | 57.5% | 2.6% | 6.1% | 260 nM and 190 nM and 270 nM and 160 nM and 200 nM | 8500 nM and 4800 nM
